Read-outs that look alike come from different tables or passages of the source. Marks after values point to notes of the source that are not given here.
Assays:
[1] = In vitro lymphatic uptake model (Franz cell, Intralipid receiver, octanol-impregnated PVDF membrane); settings: 37 °C, 0–4 h, rank among the four tested drugs
Description: The Franz Cell receiver compartment was filled with 12 mL of either Intralipid® or Intralipid® mixed with a potential inhibitor or enhancer and maintained at 37.0 ± 0.5 °C with magnetic stirring at 600 rpm, as shown in Figure 2. A synthetic 0.22 µm Polyvinylidene Fluoride (PVDF) membrane impregnated with octanol was placed between compartments. […] Two mL solutions of the model drugs were added to the donor compartment with the receiver compartment containing either Intralipid® or Intralipid® mixed with an enhancer or an inhibitor. At different time intervals (0–4 h), 0.2 mL samples were withdrawn, extracted, and analyzed for drug content using HPLC with a C18 column (150 mm × 4.6 mm i.d., 5 µm).
Therefore, this in vitro model was developed to replicate this in vivo process. Since certain lipophilic drugs are taken up from the intestinal lumen into enterocytes and subsequently enclosed within chylomicrons, the developed model was designed to include a donor compartment, resembling the intestinal lumen, where the drug solution is placed. Additionally, there was a receiver compartment that contains an artificial chylomicron medium, simulating the environment within enterocytes. These two compartments were separated by an octanol-immersed membrane, which served as a representation of the lipophilic cell membrane found in enterocytes (Figure 2).

[2] = cited from earlier work; for Density: ref ChemBK **, ChemSpider ***, # drugfuture.com, ## chemsrc.com; for PSA (polar surface area): ref DrugBank, in Å2 (unit assumed)
[3] = parameters: method as in PMID 19916501; settings: 30 mg/kg intraduodenal, mesenteric-cannulated rat; cited from earlier work
[4] = parameters: method as in PMID 23200408; settings: intraduodenal, thoracic duct-cannulated rats; cited from earlier work
[5] = oral; cited from earlier work
[6] = lipidic vehicles, lymph-cannulated rats; cited from earlier work
[7] = long-chain triglyceride formulation; cited from earlier work
[8] = parameters: method as in PMID 32785853, PMID 29109461; settings: cited from earlier work
[9] = parameters: method as in PMID 32785853; settings: Sprague-Dawley rats, cited from earlier work

Row | SMILES | lymphatic uptake (release into the receiver compartment) [1] | Density [2] | PSA (polar surface area) [2] | HBA (hydrogen-binding acceptors) ([2]; ref PubChem (* DrugBank)) | HBD (hydrogen binding donors) ([2]; ref PubChem (* DrugBank)) | LogP ([2]; ref PubChem (* DrugBank)) | Cmax in the lymph relative to plasma [3] | transport through the lymphatic system with soybean oil [4] | systemic exposure compared to testosterone administration [5] | pKa ([2]; ref PubChem (* DrugBank)) | total systemic exposure [6] | total bioavailability [7] [%] | increase in plasma concentration with sesame oil [8] [fold] | increase in systemic exposure with sesame oil [8] [fold] | increase in systemic exposure with lipids versus lipid-free formulations [9] | increase in systemic exposure with lipids versus lipid-free formulations ([9]; listed as CBD)
1 | CO[C@H]1/C=C/O[C@@]2(C)Oc3c(C)c(O)c4c(O)c(c(/C=N/N5CCN(C)CC5)c(O)c4c3C2=O)NC(=O)/C(C)=C\C=C\[C@H](C)[C@H](O)[C@@H](C)[C@@H](O)[C@@H](C)[C@H](OC(C)=O)[C@@H]1C [Rifampicin, rifampicin] | least available | 1.178 ** g/cm^3 | 220.15 * | 15 | 6 | 4.9 | – | – | – | – | – | – | – | – | – | –
2 | O=c1c(O)c(-c2ccc(O)c(O)c2)oc2cc(O)cc(O)c12 [Quercetin, quercetin] | moderate efficiency | 1.8 ^## g/cm^3 | 127.45 * | 7 | 5 | 1.48 | approximately five times higher | notably improved | – | – | – | – | – | – | – | –
3 | CCCCCCCCCCC(=O)O[C@H]1CC[C@H]2[C@@H]3CCC4=CC(=O)CC[C@]4(C)[C@H]3CC[C@]12C [testosterone undecanoate] | – | – | – | – | – | – | – | – | higher systemic exposure | – | – | – | – | – | – | –
4 | CCCCN(CCCC)CCC(O)c1cc2c(Cl)cc(Cl)cc2c2cc(C(F)(F)F)ccc12 (stereo not drawn) [Halofantrine] | – | 1.2 *** g/cm^3 | 23.5 * | 5 | 1 | 8.9 | – | – | – | 14.47 | 22.7 % of the administered dose | 19.1 | – | – | – | –
5 | C=C(C)[C@@H]1CCC(C)=C[C@H]1c1c(O)cc(CCCCC)cc1O [Cannabidiol, cannabidiol] | moderate efficiency | 1.04 ^# g/cm^3 | 40.46 * | 2 * | 2 * | 6.3 * | – | – | – | – | – | – | 250 | 2.8 | factor of three | three-fold increase
